Results from patent US9255090B2, “Heterocyclyl derivatives and their use as prostaglandin D2 receptor modulators” (Actelion Pharmaceuticals Ltd., priority 2012, dated 2016).
pIC50: −log10 of the molar value.

Target: hCRTH2 receptor (Homo sapiens (Human), UniProt Q9Y5Y4)
Assay: hCRTH2 receptor membranes radioligand (3H-PGD2) displacement assay
Assay type: binding
Conditions: 3H-PGD2 radioligand displacement, HEK293-hCRTH2 membranes
Procedure: Biological Assays: Preparation of hCRTH2 Receptor Membranes and Radioligand Displacement Assay:
First, recombinant HEK293-hCRTH2 cells were detached from culture plates into 5 ml buffer A/plate (Buffer A: 5 mM Tris, 1 mM MgCl2-6H2O pH=7.4) using a rubber policeman. Cells were then transferred into centrifugation tubes and centrifuged for 5 min at 400 g. The cell pellet was resuspended in the same buffer and tubes were frozen at −80° C. Cells were thawed and membrane fragments were generated by homogenization using a polytron homogenizer (30 seconds). The membrane fragments were then centrifuged at 3000 g for 20 minutes and resuspended in buffer C (Buffer C: 75 mM Tris, 25 mM MgCl2, 250 mM Saccharose pH 7.4). Aliquots of membrane fragments were stored at −20° C.
Binding assay was performed in a final assay volume of 250 μl. First, 25 μl of test compound, previously diluted in Binding-Buffer (Binding-Buffer: 50 mM Tris-Base, 100 mM NaCl, 1 mM EDTA, 0.1% BSA (protease free), 0.01% NaN3, 10 mM MnCl2, pH 7.0) was placed into each well. After addition of 75 μl Binding-Buffer, 50 μl of the radioligand ^3H-PGD2 (at 2.5 nM (220.000 dpm/well) from ANAWA ART0662) was added to each well. Binding assay was started by addition of 100 μl CRTH2 membrane fragments, reaching a final concentration of 20 μg/well. For non-specific binding, PGD2 was added to the reaction mixture to […] final concentration. This assay mix was incubated for 90 minutes at room temperature and then filtered through a GF/C filter 96-well plate which was pre-soaked for 3 hours in 0.5% polyethyleneimine (PEI). The filter-wells were washed three times with ice cold Binding-Buffer. Then, 40 μl of Microscint-40 (Packard) was added to each well and the retained radioactivity quantified in a Topcount (Packard).

hCRTH2 receptor, sequence (Q9Y5Y4 whole entry): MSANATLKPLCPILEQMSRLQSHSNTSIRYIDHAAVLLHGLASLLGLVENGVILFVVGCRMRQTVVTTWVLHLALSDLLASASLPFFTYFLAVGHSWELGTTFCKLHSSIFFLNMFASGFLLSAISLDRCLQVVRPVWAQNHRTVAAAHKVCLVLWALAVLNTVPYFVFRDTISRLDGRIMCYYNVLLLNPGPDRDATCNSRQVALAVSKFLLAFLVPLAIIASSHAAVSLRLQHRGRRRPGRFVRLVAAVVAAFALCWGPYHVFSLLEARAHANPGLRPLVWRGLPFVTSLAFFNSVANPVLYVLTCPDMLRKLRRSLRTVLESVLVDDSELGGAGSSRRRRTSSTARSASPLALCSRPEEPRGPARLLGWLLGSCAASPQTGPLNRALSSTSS

Compound | pIC50
CCOc1cc(CC(=O)O)ccc1-c1ccc(F)c2c1CN(C(=O)NCc1ccccc1)CC2 [Example 446, [4-(2-Benzylcarbamoyl-5-fluoro-1,2,3,4-tetrahydro-isoquinolin-8-yl)-3-ethoxy-phenyl]-acetic acid] | 8.33
O=C(O)Cc1cc2c(c(-c3ccc(F)c4c3CN(C(=O)OCc3ccccc3)CC4)c1)OCO2 [Example 167, 8-(6-Carboxymethyl-benzo[1,3]dioxol-4-yl)-5-fluoro-3,4-dihydro-1H-isoquinoline-2-carboxylic acid benzyl ester] | 7.81
COc1ccc(CC(=O)O)cc1-c1ccc(F)c2c1CN(C(=O)CC1CCOc3c(F)cccc31)CC2 (racemic) [Example 246] | 7.65
COc1ccc(CC(=O)O)cc1-c1ccc(F)c2c1CN(C(=O)C1CCc3cccc(OC)c3C1)CC2 (racemic) [Example 241] | 8.08
COc1ccc(CC(=O)O)cc1-c1ccc(F)c2c1CN(C(=O)[C@@H]1C[C@H]1c1ccc(Cl)cc1)CC2 (racemic) [Example 2, (±)-(3-{2-[trans-2-(4-Chloro-phenyl)-cyclopropanecarbonyl]-5-fluoro-1,2,3,4-tetrahydro-isoquinolin-8-yl}-4-methoxy-phenyl)-acetic acid] | 8.71
CCOc1ccc(CC(=O)O)cc1-c1ccc(F)c2c1CN(C(=O)NCc1ccc(F)cc1)CC2 [Example 434, {4-Ethoxy-3-[5-fluoro-2-(4-fluoro-benzylcarbamoyl)-1,2,3,4-tetrahydro-isoquinolin-8-yl]-phenyl}-acetic acid] | 9.15
O=C(O)COc1ccc(Cl)c(-c2ccc(F)c3c2CN(C(=O)OCc2ccccc2)CC3)c1 [Example 176, 8-(5-Carboxymethoxy-2-chloro-phenyl)-5-fluoro-3,4-dihydro-1H-isoquinoline-2-carboxylic acid benzyl ester] | 7.87
CCOc1ccc(CC(=O)O)cc1-c1ccc(F)c2c1CN(C(=O)NCCc1ccccc1)CC2 [Example 435, [4-Ethoxy-3-(5-fluoro-2-phenethylcarbamoyl-1,2,3,4-tetrahydro-isoquinolin-8-yl)-phenyl]-acetic acid] | 8.59
COc1cc(CC(=O)O)ccc1-c1ccc(F)c2c1CN(C(=O)CCc1c(C)[nH]c3ccccc13)CC2 [Example 186, (4-{5-Fluoro-2-[3-(2-methyl-1H-indol-3-yl)-propionyl]-1,2,3,4-tetrahydro-isoquinolin-8-yl}-3-methoxy-phenyl)-acetic acid] | 8.58
Cc1cccc(CCC(=O)N2CCc3c(F)ccc(-c4cc(CC(=O)O)ccc4OC(C)C)c3C2)n1 [Example 295, (3-{5-Fluoro-2-[3-(6-methyl-pyridin-2-yl)-propionyl]-1,2,3,4-tetrahydro-isoquinolin-8-yl}-4-isopropoxy-phenyl)-acetic acid] | 8.77
COc1ccc(CC(=O)O)cc1-c1ccc(C(F)(F)F)c2c1CN(C(=O)OCc1ccccc1)CC2 [Example 158, 8-(5-Carboxymethyl-2-methoxy-phenyl)-5-trifluoromethyl-3,4-dihydro-1H-isoquinoline-2-carboxylic acid benzyl ester] | 7.17
COc1ccc(CC(=O)O)cc1-c1ccc(F)c2c1CN(C(=O)Cc1noc3ccccc13)CC2 [Example 121, {3-[2-(2-Benzo[d]isoxazol-3-yl-acetyl)-5-fluoro-1,2,3,4-tetrahydro-isoquinolin-8-yl]-4-methoxy-phenyl}-acetic acid] | 7.33
COc1ccc(CC(=O)O)cc1-c1ccc(F)c2c1CN(C(=O)OC(C)C)CC2 [Example 143, 8-(5-Carboxymethyl-2-methoxy-phenyl)-5-fluoro-3,4-dihydro-1H-isoquinoline-2-carboxylic acid isopropyl ester] | 6.46
COc1ccc(CC(=O)O)cc1-c1ccc(S(C)(=O)=O)c2c1CN(C(=O)OCc1ccccc1)CC2 [Example 25, 8-(5-Carboxymethyl-2-methoxy-phenyl)-5-methanesulfonyl-3,4-dihydro-1H-isoquinoline-2-carboxylic acid benzyl ester] | 6.83
O=C(O)Cc1cc(-c2ccc(F)c3c2CN(C(=O)OCc2ccccc2)CC3)ccc1Cl [Example 11, 8-(3-Carboxymethyl-4-chloro-phenyl)-5-fluoro-3,4-dihydro-1H-isoquinoline-2-carboxylic acid benzyl ester] | 7.16
COc1ccc(CC(=O)O)cc1-c1ccc(F)c2c1CN(C(=O)[C@H](C)c1ccccc1)CC2 [Example 255, {3-[5-Fluoro-2-((R)-2-phenyl-propionyl)-1,2,3,4-tetrahydro-isoquinolin-8-yl]-4-methoxy-phenyl}-acetic acid] | 6.01

Compound | pIC50
CCOc1cc(CC(=O)O)ccc1-c1ccc(F)c2c1CN(C(=O)CCc1cccc(F)c1)CC2 [Example 316, (3-Ethoxy-4-{5-fluoro-2-[3-(3-fluoro-phenyl)-propionyl]-1,2,3,4-tetrahydro-isoquinolin-8-yl}-phenyl)-acetic acid] | 8.68
COc1cccc(CC(=O)O)c1-c1ccc(F)c2c1CN(C(=O)OCc1ccccc1)CC2 [Example 418, 8-(2-Carboxymethyl-6-methoxy-phenyl)-5-fluoro-3,4-dihydro-1H-isoquinoline-2-carboxylic acid benzyl ester] | 6.45
CCOc1ccc(CC(=O)O)cc1-c1ccc(F)c2c1CN(C(=O)/C=C/c1ccccn1)CC2 [Example 336, {4-Ethoxy-3-[5-fluoro-2-((E)-3-pyridin-2-yl-acryloyl)-1,2,3,4-tetrahydro-isoquinolin-8-yl]-phenyl}-acetic acid] | 8.42
COc1ccc(CC(=O)O)cc1-c1ccc(F)c2c1CN(C(=O)CC1COc3ccccc3C1)CC2 (racemic) [Example 242] | 8.57
COc1ccc(CC(=O)O)cc1-c1cccc2c1CN(C(=O)OCc1ccccc1)CC2 [Example 170, 8-(5-Carboxymethyl-2-methoxy-phenyl)-3,4-dihydro-1H-isoquinoline-2-carboxylic acid benzyl ester] | 6.96
C#CCCOC(=O)N1CCc2c(F)ccc(-c3cc(CC(=O)O)ccc3OCC)c2C1 [Example 381, 8-(5-Carboxymethyl-2-ethoxy-phenyl)-5-fluoro-3,4-dihydro-1H-isoquinoline-2-carboxylic acid but-3-ynyl ester] | 7.54
COc1ccc(CC(=O)O)cc1-c1c(F)ccc2c1CN(C(=O)OCc1ccccc1)CC2 [Example 33, 8-(5-Carboxymethyl-2-methoxy-phenyl)-7-fluoro-3,4-dihydro-1H-isoquinoline-2-carboxylic acid benzyl ester] | 6.95
COc1ccc(CC(=O)O)cc1-c1ccc(Cl)c2c1CN(C(=O)CCN1CCCc3ccccc31)CC2 [Example 77, {3-[5-Chloro-2-(3-3,4-dihydro-2H-quinolin-1-yl-propionyl)-1,2,3,4-tetrahydro-isoquinolin-8-yl]-4-methoxy-phenyl}-acetic acid] | 7.62
CCCNC(=O)N1CCc2c(F)ccc(-c3cc(CC(=O)O)ccc3OC)c2C1 [Example 137, [3-(5-Fluoro-2-propylcarbamoyl-1,2,3,4-tetrahydro-isoquinolin-8-yl)-4-methoxy-phenyl]-acetic acid] | 6.12
COc1ccc(CC(=O)O)cc1-c1ccc(F)c2c1CN(C(=O)CC1CC1)CC2 [Example 254, {3-[2-(2-Cyclopropyl-acetyl)-5-fluoro-1,2,3,4-tetrahydro-isoquinolin-8-yl]-4-methoxy-phenyl}-acetic acid] | 6.21
COc1cc(CC(=O)O)cc(-c2ccc(F)c3c2CN(C(=O)OCc2ccccc2)CC3)c1 [Example 15, 8-(3-Carboxymethyl-5-methoxy-phenyl)-5-fluoro-3,4-dihydro-1H-isoquinoline-2-carboxylic acid benzyl ester] | 7.73
CCC(CC(=O)N1CCc2c(F)ccc(-c3cc(CC(=O)O)ccc3OC)c2C1)c1ccccc1 (racemic) [Example 268] | 7.20
COc1ccc(CC(=O)O)cc1-c1ccc(F)c2c1CN(C(=O)OCc1csc(C)n1)CC2 [Example 150, 8-(5-Carboxymethyl-2-methoxy-phenyl)-5-fluoro-3,4-dihydro-1H-isoquinoline-2-carboxylic acid 2-methyl-thiazol-4-ylmethyl ester] | 8.15
O=C(O)Cc1cccc(-c2ccc(F)c3c2CN(C(=O)OCc2ccccc2)CC3)c1 [Example 24, 8-(3-Carboxymethyl-phenyl)-5-fluoro-3,4-dihydro-1H-isoquinoline-2-carboxylic acid benzyl ester] | 7.16
CC(C)(CC(=O)N1CCc2c(F)ccc(-c3ccc(CC(=O)O)cc3OCC(F)(F)F)c2C1)c1ccccc1 [Example 286, [4-[5-Fluoro-2-(3-methyl-3-phenyl-butyryl)-1,2,3,4-tetrahydro-isoquinolin-8-yl]-3-(2,2,2-trifluoro-ethoxy)-phenyl]-acetic acid] | 8.05
